Test results taken from US20150177202A1, “ODOR THRESHOLD TEST” (University of Tennessee Research Foundation, priority 2013, published 2015).
“And” between values parts separate entries of the source, which are not always exact repeats. Equal values may be shown once.

Assays:
olfactory system = assay: WUTC Odor Threshold Test (yes-no detection of odorant dilutions in water, signal detection analysis); type: in vivo, human; design: Estimated odorant threshold, Mean / Mean estimated threshold / Estimated odorant threshold, Minimum: unit not given here; conditions: for Threshold: combined trials of all 33 subjects, logistic regression, p=0.5; for Estimated threshold compared with literature value: in vivo; for Estimated odorant threshold, Maximum: maximum of individual participant thresholds, in ppm; for Estimated odorant threshold, Mean: mean of individual participant thresholds; for Estimated odorant threshold, Minimum: minimum of individual participant thresholds
Excerpt: The present study involved the creation and study of a new test of olfactory ability, deemed the Wheeler University of Tennessee, Chattanooga (WUTC) Odor Threshold Test. This test was developed building upon the methodology behind signal detection theory as it allowed for multiple measures of olfactory ability to be calculated from a single test. These measures are sensitivity, response-bias, and threshold. Unlike currently available threshold tests, the WUTC Odor Threshold Test utilizes a randomized, multiple odor administration along with the presentation of blank concentrations.
A total of thirty three participants (N=33), collected from the UTC campus, were administered the WUTC threshold test.
To make the test, odorant molecules were first dissolved in a purified H2O solvent following their individual levels of solubility to create standard solutions. These standards were the highest concentration for each odorant and the base from which all successive dilutions were made. Liquid odorants ethanol, pinene, and isoamyl acetate were diluted by volume whereas para-cresol and vanillin were diluted by mass. Each standard was rounded to the nearest μL. A total of nine concentrations were made from each standard solution and diluted at a ratio of 1:2. The highest concentration for each odor as well as concentration ranges were chosen based on literature threshold values and a small, preliminary testing period. Solutions (10 mL) of each odorant were diluted and contained in sterilized and dried glass vials with black, screw-top lids (see FIG. 12).
Blanks were made using 10 mL of the same purified H2O used as a solvent for the other odorants. The final test contained 45 vials with odorant concentrations and nine blanks for a total of 54 vials. Tests were remade after either one month or ten administrations had been reached to avoid any amount of loss of odor strength that could result from extended shelf time or exposure to air during administrations. Before reproducing the test, vials underwent sterilization and drying procedures.
Each subject was instructed to complete the provided demographic form (see below). […] Each participant was then seated in a cushioned, high backed chair facing away from a table where each testing vial was placed. In a brief tutorial to the test, subjects were instructed that they would be presented with a number of vials, some containing odors and some not, one at a time. Subjects were then told that they would only be required to smell the contents of the vial and verbally give a “yes” or “no” answer as to whether they detected anything. […] Once the subject felt comfortable with the instructions presented in this tutorial, the actual test was started.
Following a randomly generated number sequence for each subject, a seated test administrator would select the correspondingly numbered test vial for each trial, place it in tongs, and hand it to a second administrator that, like the participant, was facing away from the administration table. […] The “yes” or “no” response given by the subject was recorded by the first administrator and the vial and tongs were returned to him/her by the second administrator. This procedure was repeated for each of the odorant tubes in the test with each tube presented to the participant twice.

trigeminal nerve = conditions: cited from earlier work
[1] = test system: premature newborn infants; conditions: olfactory stimulation; cited from earlier work
[2] = concentration 1 (lowest), combined participant trials
[3] = concentration 2, combined participant trials
[4] = concentration 3, combined participant trials
[5] = concentration 4, combined participant trials
[6] = concentration 5, combined participant trials
[7] = concentration 6, combined participant trials
[8] = concentration 7, combined participant trials
[9] = concentration 8, combined participant trials
[10] = concentration 9 (highest), combined participant trials

SMILES	Threshold (olfactory system)	Mean A′ (olfactory system; [2])	Mean d′ (olfactory system; [2])	Mean A′ (olfactory system; [3])	Mean d′ (olfactory system; [3])	Mean A′ (olfactory system; [4])	Mean d′ (olfactory system; [4])	Mean A′ (olfactory system; [5])	Mean d′ (olfactory system; [5])	Mean A′ (olfactory system; [6])	Mean d′ (olfactory system; [6])	Mean A′ (olfactory system; [7])	Mean d′ (olfactory system; [7])	Mean A′ (olfactory system; [8])	Mean d′ (olfactory system; [8])	Mean A′ (olfactory system; [9])	Mean d′ (olfactory system; [9])	Mean A′ (olfactory system; [10])	Mean d′ (olfactory system; [10])	Estimated threshold compared with literature value (olfactory system)	other results
CCO [Ethanol, ethanol]	263.750 ppm	0.757	0.898	0.716	0.704	0.514	0.035	0.741	0.819	0.561	0.16	0.766	0.941	0.668	0.513	0.789	1.066	0.804	1.154	at or within literature values	Mean estimated threshold (olfactory system; African Americans): 112.069; Mean estimated threshold (olfactory system; Caucasians): 344.968; Estimated odorant threshold, Maximum (olfactory system): 942.747; Estimated odorant threshold, Mean (olfactory system): 251.808; Estimated odorant threshold, Minimum (olfactory system): 1.057; Mean estimated threshold (olfactory system; participants with headaches (N=8)): 396.631; Mean estimated threshold (olfactory system; participants without headaches (N=12)): 155.260; Concentration causing irritation of the trigeminal nerve (trigeminal nerve): over 1000 ppm
CC(=O)OCCC(C)C [Isoamyl Acetate, isoamyl acetate]	38.274 ppm	0.407	−0.249	0.424	−0.198	0.424	−0.198	0.478	−0.053	0.716	0.704	0.716	0.704	0.796	1.11	0.826	1.299	0.781	1.024	below its literature value	Estimated odorant threshold, Maximum (olfactory system): 65.102; Estimated odorant threshold, Mean (olfactory system): 13.935; Estimated odorant threshold, Minimum (olfactory system): 0.513
CC1=CCC2CC1C2(C)C [Pinene, L-α-pinene]	275.598 ppm	0.407	−0.249	0.757	0.898	0.561	0.16	0.514	0.035	0.668	0.513	0.724	0.742	0.847	1.458	0.901	2.097	0.875	1.72	greater than values found	Estimated odorant threshold, Maximum (olfactory system): 795.338; Estimated odorant threshold, Mean (olfactory system): 251.225; Estimated odorant threshold, Minimum (olfactory system): 0.778; Activity as an irritant (trigeminal nerve): nearly inactive as an irritant
COc1cc(C=O)ccc1O [Vanillin, vanillin]	112.426 ppm	0.39	−0.302	0.478	−0.053	0.531	0.077	0.625	0.359	0.561	0.16	0.678	0.55	0.781	1.024	0.796	1.11	0.888	1.885	greater than values found	Effect on apnea [1]: significantly prevent apnea; Estimated odorant threshold, Maximum (olfactory system): 339.932; Estimated odorant threshold, Mean (olfactory system): 119.978 and 19.978; Estimated odorant threshold, Minimum (olfactory system): 2.619; Mean estimated threshold (olfactory system; subjects with asthma (N=8)): 207.137; Mean estimated threshold (olfactory system; subjects without asthma (N=18)): 86.084
CCCCO [n-butanol, reference compound]	–	–	–	–	–	–	–	–	–	–	–	–	–	–	–	–	–	–	–	–	Concentration causing irritation of the trigeminal nerve (trigeminal nerve): approximately 200 ppm
Cc1ccc(O)cc1 [para-cresol]	1.058 ppm	0.356	−0.416	0.561	0.16	0.614	0.32	0.614	0.32	0.313	0.475	0.804	1.154	0.847	1.458	0.84	1.403	0.908	2.246	at or within literature values	Estimated odorant threshold, Maximum (olfactory system): 5.28; Estimated odorant threshold, Mean (olfactory system): 1.340; Estimated odorant threshold, Minimum (olfactory system): 0.005
